Like-named read-outs stand apart in the source and are kept apart here. Marks after values point to notes of the source that are not given here.
Tests used:
[1] = test system: STAT3 phosphorylation in Jurkat cells; test: Detection of STAT3 phosphorylation using Jurkat cells stimulated with IFN-α; format: cell-based; conditions: Homo sapiens, IFN-α 25 ng/mL, 30 min, compound pre-incubation 1.5 h
Description: 20 μL of Jurkat cells growing at log phase were taken and counted, and the required number of cells (mL) were taken and centrifuged at 1300 rpm for 3 min. Phenol red-free 1640 base medium (Hyclone) was added to adjust the cell density to about 1.7*10E7 cells/mL. The cells were seeded according to the above cell density in a 384-well plate (small-volume white plate) at 8 μL per well. The compound was added with a nanoliter pipettor, and the plate was incubated for 1.5 h. IFN-α (Beijing Sino Biological) was diluted to 75 ng/mL (with a final concentration of 25 ng/mL) with phenol red-free 1640 base medium. Subsequently, 4 μL of IFN-α (3×) was added to each well according to the plate distribution. The blank group was seeded with cells, without compound and IFN-α. The control group was seeded with cells, without compound but with IFN-α. The plate was incubated at 37° C. for 30 min. 4 μL of lysis buffer (4×) containing blocking buffer was added immediately, and the cells were lysed by shaking at room temperature for 40 min. […] pre-mixed antibody (vol/vol) in assay buffer was added and the plate was covered. The mixture was mixed well by centrifugation and incubated overnight at room temperature. Signal values at 665 nm/620 nm were detected using a PE Envision multi-functional microplate reader, and IC50 was calculated by tour-parameter fitting.

[2] = In vitro stability in liver microsomes (human); format: in vitro ADME; conditions: compound 1 μM
Description: (§1) 300 μL of the final incubation system contained 30 μL of liver microsomes (protein concentration: 5 mg/mL). 30 μL of NADPH+MgCl2, 3 μL of the test compound (in acetonitrile), and 237 μL of PBS buffer (pH 7.4), wherein the proportion of the organic solvent (acetonitrile) was 1% (volume ratio). Samples were prepared in duplicate of 0.30 mL for each specie. Tubes each containing 270 μL of a mixed solution of substrate and enzyme and NADPH were pre-incubated at 37° C. for 5 min. 30 μL of NADPH+MgCl2 was added and the mixture was mixed. 50 μL of the mixture was taken at 0 min, 10 min, 30 min, and 60 min, and 300 μL of glacial acetonitrile containing an internal standard was added to terminate the reaction.
(§2) 300 μL of glacial acetonitrile containing an internal standard (20 ng/mL) was added to 50 μL of the incubated sample for precipitation. The mixture was vortexed for 10 min and centrifuged (13,000 rpm, 20° C.) for 10 min. 70 μL of supernatant was taken and diluted with 70 μL of ultrapure water. After being mixed well, 0.5 μL of the resulting sample was subjected to LC/MS/MS analysis.

[3] = In vitro stability in liver microsomes (mouse); format: in vitro ADME; conditions: compound 1 μM
Description: as §1, §2

[4] = In vivo pharmacokinetics in mice; conditions: ICR mice, plasma; for AUC(0-t): read-out: AUC(0-10 h); for MRT last: read-out: MRT(0-t)
Description: ICR mice (Shanghai Institute of Planned Parenthood Research) of 6-8 weeks old, weighing 20-24 g, were randomized into groups of 9 after 3-5 days of acclimatization, and the test compounds at a dose of 15 mg/kg or 30 mg/kg were administered intragastrically to the mice.
The animals to be tested (ICR mice) were fasted for 12 h before administration and food was provided 4 h after administration, and water was freely drunk before and after the experiment and during the experiment.
After intragastrric administration, about 0.1 mL of blood was collected from the orbit at 0.25 (15 min), 0.5 (30 min), 1, 2, 4, 6, 8, and 10 h. Each mouse was subjected to blood collection at 3-4 time points, with three mice per time point. The blood samples were mixed with EDTA-K2 anticoagulant, transferred to a centrifuge within 30 min, and then centrifuged at 4000 rpm for 10 min. at 4° C. to separate the plasma. All the plasma samples were collected and immediately stored at −20° C. for testing.
400 μL of acetonitrile solution containing an internal standard (20 ng/mL) was added to 20 μL of the collected plasma sample to be tested. The mixture was shaken and mixed well for 10 min, and centrifuged at 13,000 rpm for 10 min 50 μL of supernatant was taken and diluted with 100 μL of ultrapure water. After being mixed well, 0.5 μL of the resulting sample was subjected to LC/MS/MS, and a chromatogram was recorded.
Oral exposure of the compounds disclosed herein was evaluated by in vivo pharmacokinetic experiments in mice.

[5] = test system: mouse colitis model induced by anti-mouse CD40 antibody; test: Pharmacodynamics in mouse colitis model induced by anti-CD40 mAb antibody; format: in vivo, CB17-SCID mice; conditions: Day 7, vs model control
Description: SPF-grade male CB17-SCID mice (6-8 weeks old) were divided into groups on the first day of the experiment. On the first day of the experiment, the mice in the blank group were intraperitoneally injected with PBS, while the mice in the model group were intraperitoneally injected with anti-mouse CD40 antibody (100 μg, diluted with PBS as a modeling agent solution), so as to establish a mouse colitis model. The injection volume for all groups of mice was 0.1 mL.
The day of grouping was determined as Day 1, and the intragastric administration was started on the grouping day, with a volume of 2 mL/kg administered twice daily for 6 consecutive days. The vehicle for intragastric administration was: DMSO:PEG400=5:95 (volume ratio).
Animal body weights were monitored daily during the experiment. On Day 7, the end point of the experiment, all mice were euthanized and tissue samples were collected. Mice were euthanized by cervical dislocation, abdomen of the mice were cut open, and mouse spleens were collected, weighed, and photographed. The colorectum was separated from the small intestine from the end of the cecum to the anus, and the whole colorectum was removed, photographed, and then dissected longitudinally along its longitudinal axis. The intestinal contents were cleansed with a pre-cooled saline solution. The rinsed colorectum was laid flat in a large flat dish with the mucosal side thereof facing upward. Residual saline solution was removed from the […] with filter paper, and colonic tissues were taken for weighing.
The inhibition rate (%) was calculated according to the following formula: inhibition rate (%)=(M−T)/(M−C)*100% (T: treatment group; C: blank control group; M: model control group).

[6] = In vitro stability in liver microsomes (monkey); format: in vitro ADME; conditions: compound 1 μM
Description: as §1, §2

Structure (SMILES) | IC50 [1] | Human Residuals at 60 min (%) [2] | Mouse Residuals at 60 min (%) [3] | further results
[2H]C([2H])([2H])NC(=O)c1nnc(NC(=O)C2CC2)cc1Nc1cccc(-c2ncc(N3CCCC3=O)cn2)c1OC [Compound 18-h] | 5.3 nM | 106.77% | 94.80% | 
[2H]C([2H])([2H])NC(=O)c1cnc(NC(=O)C2CC2)cc1Nc1cccc(-c2ncc(N3CCCC3)cn2)c1OC [Compound 60-j] | 8.5 nM |  |  | 
[2H]C([2H])([2H])NC(=O)c1nnc(NC(=O)C2CC2)cc1Nc1cccc(-c2ncc(-c3cccnc3C(F)(F)F)cn2)c1OC [Compound 6-j] | 2.4 nM | 100.18% |  | Cmax ([4]; IG 30 mg/kg): 12534 ng/mL; t1/2 ([4]; IG 30 mg/kg): 6.26 h; AUC(0-inf) ([4]; mouse, po, IG 30 mg/kg): 63600 ng·h/mL; Tmax ([4]; mouse, po, IG 30 mg/kg): 0.5 h; AUC(0-t) ([4]; mouse, po, IG 30 mg/kg): 61200 ng·h/mL; MRT last ([4]; mouse, po, IG 30 mg/kg): 4.74 h; Spleen coefficient Inhibition rate (%) ([5]; 5 mg/kg i.g. bid for 6 days): 81.78%**; Spleen weight Inhibition rate (%) ([5]; 5 mg/kg i.g. bid for 6 days): 83.38%; Weight of intestinal tissue per unit length Inhibition rate (%) ([5]; 5 mg/kg i.g. bid for 6 days): 76.21%***
[2H]C([2H])([2H])NC(=O)c1nnc(NC(=O)C2CC2)cc1Nc1cccc(-c2ncc(-c3cccnc3C)cn2)c1OC [Compound 52-j] | 2.7 nM |  |  | Spleen coefficient Inhibition rate (%) ([5]; 15 mg/kg i.g. bid for 6 days): 101%***; Spleen weight Inhibition rate (%) ([5]; 15 mg/kg i.g. bid for 6 days): 102%***; Weight of intestinal tissue per unit length Inhibition rate (%) ([5]; 15 mg/kg i.g. bid for 6 days): 101%***
[2H]C([2H])([2H])NC(=O)c1nnc(NC(=O)C2CC2)cc1Nc1cccc(-c2ncc(-c3ccc(F)nc3F)cn2)c1OC [Compound 12-j] | 4.5 nM |  |  | 
[2H]C([2H])([2H])NC(=O)c1nnc(NC(=O)C2CC2)cc1Nc1cccc(-c2ncc(-c3cccnc3)cn2)c1OC [Compound 1-j] | 4.5 nM |  |  | 
[2H]C([2H])([2H])NC(=O)c1nnc(NC(=O)C2CC2)cc1Nc1cccc(-c2ncc(N3CC[C@@H](O)C3)cn2)c1OC [Compound 44-j] |  | 98.44% | 91.31% | 
[2H]C([2H])([2H])NC(=O)c1nnc(NC(=O)C2CC2)cc1Nc1cccc(-c2ncc(N3CC(O)C3)cn2)c1OC [Compound 51-j] | 7.1 nM |  | 96.42% | 
[2H]C([2H])([2H])NC(=O)c1nnc(NC(=O)C2CC2)cc1Nc1cccc(-c2ncc(-c3cccnc3F)cn2)c1OC [Compound 5-j] | 2.9 nM | 107.15% | 99.08% | AUC(0-inf) ([4]; mouse, po, IG 30 mg/kg): 62600 ng·h/mL; Tmax ([4]; mouse, po, IG 30 mg/kg): 0.5 h; half-life ([4]; mouse, po, IG 30 mg/kg): 4.48 h; AUC(0-t) ([4]; mouse, po, IG 30 mg/kg): 60800 ng·h/mL; Cmax ([4]; mouse, po, IG 30 mg/kg, read-out: Cmax): 8100 ng/mL; MRT last ([4]; mouse, po, IG 30 mg/kg): 6.26 h; Monkey Residuals at 60 min (%) [6]: 99.31%
[2H]C([2H])([2H])NC(=O)c1nnc(NC(=O)C2CC2)cc1Nc1cccc(-c2ncc(N3CCC(C)(C)C3=O)cn2)c1OC [Compound 49-j] | 5.2 nM |  |  | 
[2H]C([2H])([2H])NC(=O)c1nnc(NC(=O)C2CC2)cc1Nc1cccc(-c2ncc(-c3cccnc3C#N)cn2)c1OC [Compound 26-h] | 5.3 nM |  |  | 
[2H]C([2H])([2H])NC(=O)c1nnc(NC(=O)C2CC2)cc1Nc1cccc(-c2ncc(N3CC[C@@H](O)C3)cn2)c1OC [Compound 59-j] | 5 nM |  | 100.66% | 
[2H]C([2H])([2H])NC(=O)c1nnc(NC(=O)C2CC2)cc1Nc1cccc(-c2ncc(-c3ccc(F)nc3)cn2)c1OC [Compound 3-j] |  | 103.99% | 99.92% | Monkey Residuals at 60 min (%) [6]: 95.82%
[2H]C([2H])([2H])NC(=O)c1nnc(NC(=O)C2CC2)cc1Nc1cccc(-c2ncc(-c3cncnc3C)cn2)c1OC [Compound 54-j] | 3.4 nM |  | 92.35% | 
[2H]C([2H])([2H])NC(=O)c1nnc(NC(=O)C2CC2)cc1Nc1cccc(-c2ncc(N3CC(C)(C)CC3=O)cn2)c1OC [Compound 47-j] | 2.4 nM |  |  | 
[2H]C([2H])([2H])NC(=O)c1nnc(NC(=O)C2CC2)cc1Nc1cccc(-c2ncc(-c3ccnn3C)cn2)c1OC [Compound 34-h] | 5.7 nM | 99.75% | 92.69% | AUC(0-inf) ([4]; mouse, po, IG 15 mg/kg): 66700 ng·h/mL; Tmax ([4]; mouse, po, IG 15 mg/kg): 4 h; half-life ([4]; mouse, po, IG 15 mg/kg): 4.19 h; AUC(0-t) ([4]; mouse, po, IG 15 mg/kg): 65300 ng·h/mL; Cmax ([4]; mouse, po, IG 15 mg/kg, read-out: Cmax): 10200 ng/mL; MRT last ([4]; mouse, po, IG 15 mg/kg): 4.44 h; Spleen coefficient Inhibition rate (%) ([5]; 5 mg/kg i.g. bid for 6 days): 83%***; Spleen weight Inhibition rate (%) ([5]; 5 mg/kg i.g. bid for 6 days): 82%***; Weight of intestinal tissue per unit length Inhibition rate (%) ([5]; 5 mg/kg i.g. bid for 6 days): 70%***
[2H]C([2H])([2H])NC(=O)c1nnc(NC(=O)C2CC2)cc1Nc1cccc(-c2ncc(-n3ccnc3C)cn2)c1OC [Compound 55-j] | 5.2 nM |  |  | 
[2H]C([2H])([2H])NC(=O)c1cnc(NC(=O)C2CC2)cc1Nc1cccc(-c2ncc(-c3cccnc3F)cn2)c1OC [Compound 57-j] | 4.4 nM |  |  | 
[2H]C([2H])([2H])NC(=O)c1nnc(NC(=O)C2CC2)cc1Nc1cccc(-c2ncc(N3CC[C@H](O)C3)cn2)c1OC [Compound 53-j] | 5.1 nM |  | 94.17% | 
